Assay results: BindingDB's records for doi:10.1021/jm00017a010 (Sapienza University of Rome, 1995)

Biological target: T1, Gag-Pol polyprotein [588-1027]/[588-1147] (Human immunodeficiency virus 1, UniProt P04585)
T1 construct: 588-1027; 588-1147
Experiment: HIV-1 RT Assay
From the text: The IC50 of reverse transcriptase is the concentration that inhibits 50% of recombinant HIV-1 RT RNA-directed DNA polymerase activity in vitro.

| Structure (SMILES) | IC50 (pH 7.8, 37 °C) | IC50 |
| --- | --- | --- |
| Cc1cccc(Cc2nc(S)nc(O)c2C)c1 [4-Hydroxy-2-mercapto-5-methyl-6-(3-methylbenzyl)pyrimidine] | > 10 µM |  |
| Cc1cccc(Cc2cc(=O)[nH]c(=S)[nH]2)c1 [6-[(3-methylphenyl)methyl]-2-sulfanylidene-1,2,3,4-tetrahydropyrimidin-4-one] | > 10 µM |  |
| Cc1c(O)nc(S)nc1Cc1ccccc1 [6-benzyl-4-hydroxy-2-mercapto-5-methylpyrimidine] | > 10 µM |  |
| CC1(C)C(=O)NC(SC2CCCC2)=N/C1=C/c1ccccc1 [(6E)-2-(cyclopentylsulfanyl)-5,5-dimethyl-6-(phenylmethylidene)-3,4,5,6-tetrahydropyrimidin-4-one] |  | > 10 µM |
| CC(C)Sc1nc(Cc2ccccc2)cc(=O)[nH]1 [S-DABO] | > 10 µM |  |
| CC1(C)C(=O)NC(SC2CCCCC2)=N/C1=C/c1ccccc1 [S-DABO] |  | > 10 µM |
| CSc1nc(Cc2ccccc2)cc(=O)[nH]1 [S-DABO] | > 10 µM |  |
| CSc1nc(O)cc(Cc2cccc(C)c2)n1 [S-DABO] | > 10 µM |  |
